This note sets out measurements from ChEMBL document CHEMBL5329225, “Solubilizer Tag Effect on PD-L1/Inhibitor Binding Properties for m-Terphenyl Derivatives” (ACS Med Chem Lett, 2024).

In general, IC50 refers to the midpoint of a concentration-inhibition curve. A lower IC50 goes with greater potency.

Activity calls are given as the source filed them. The rule behind the calls is not given here.

The subject of series [1] is Jurkat. Put plainly: Induction of T cell activation in human Jurkat T cells overexpressing PD-1 co-cultured with Chinese hamster CHO cells overexpressing PD-L1 assessed as increase in luciferase activity at 1 uM incubated for 6 hrs by Bio-GloTM reagent based immune checkpoint blockade assay. In kind it is functional.
Series [2] has as its system Jurkat. The experiment in a line: Induction of T cell activation in human Jurkat T cells overexpressing PD-1 co-cultured with Chinese hamster CHO cells overexpressing PD-L1 assessed as increase in luciferase activity at 6.4 uM incubated for 6 hrs by Bio-GloTM reagent based immune checkpoint blockade assay. Type of series: functional.
The test system of series [3] is Jurkat. Put plainly: Induction of T cell activation in human Jurkat T cells overexpressing PD-1 co-cultured with Chinese hamster CHO cells overexpressing PD-L1 assessed as increase in luciferase activity incubated for 6 hrs by Bio-GloTM reagent based immune checkpoint blockade assay. In kind it is functional.
The nature of series [4]: Toxicity in human Jurkat T cells overexpressing PD-1 co-cultured with Chinese hamster CHO cells overexpressing PD-L1 at 0.01 to 100 uM. In kind it is cell-based. Conditions: dose 0.01-100 µM.
The target of series [5] is Programmed cell death protein 1/Programmed cell death 1 ligand 1 (Homo sapiens, UniProt Q9NZQ7). The experiment in a line: Inhibition of human PD-1/PDL1 interaction incubated for 1 hr by HTRF assay. In kind it is protein-complex assay. For orientation: TR-FRET usually uses a lanthanide donor and a delayed reading to cut background.
Chain of Programmed cell death protein 1/Programmed cell death 1 ligand 1 (Q15116 whole entry): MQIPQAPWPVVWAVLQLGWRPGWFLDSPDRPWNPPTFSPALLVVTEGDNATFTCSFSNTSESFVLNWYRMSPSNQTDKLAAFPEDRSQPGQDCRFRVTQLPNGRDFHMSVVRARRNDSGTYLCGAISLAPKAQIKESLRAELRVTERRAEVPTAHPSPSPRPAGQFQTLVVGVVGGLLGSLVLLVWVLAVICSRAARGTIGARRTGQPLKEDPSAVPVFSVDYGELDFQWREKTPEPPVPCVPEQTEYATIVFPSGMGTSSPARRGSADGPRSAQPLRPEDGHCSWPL
Chain of Programmed cell death protein 1/Programmed cell death 1 ligand 1 (Q9NZQ7 whole entry): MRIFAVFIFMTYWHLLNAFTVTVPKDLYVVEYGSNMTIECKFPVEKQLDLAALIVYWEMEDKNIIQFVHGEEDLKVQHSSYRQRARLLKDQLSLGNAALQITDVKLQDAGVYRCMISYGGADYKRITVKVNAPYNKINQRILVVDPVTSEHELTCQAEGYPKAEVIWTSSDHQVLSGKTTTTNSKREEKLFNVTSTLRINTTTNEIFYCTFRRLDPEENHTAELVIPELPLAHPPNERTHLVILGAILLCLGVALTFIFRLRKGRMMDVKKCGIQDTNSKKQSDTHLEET

For `COc1cc(-c2cccc(-c3ccc4c(c3)OCCO4)c2Cl)ccc1CN1CCC(C(=O)NC(CO)(CO)CO)C1` (stereo not given), the outcome in series [1] and in series [2] was inactive.

`COc1cc(-c2cccc(-c3ccc4c(c3)OCCO4)c2Cl)ccc1CN1CCC(C(=O)NO)C1` (stereo not given): the outcome in series [1] was inactive.

Take `COc1cc(-c2cccc(-c3ccc4c(c3)OCCO4)c2Cl)ccc1CN1CCC(C(=O)NCCN)C1` (stereo not given): the result in series [1] and in series [2] was inactive.

As to `COc1cc(-c2cccc(-c3ccc4c(c3)OCCO4)c2Cl)ccc1CN1CCC(C(=O)NC(CO)CO)C1` (stereo not given), in series [1], the outcome was inactive. Further, the result in series [2] was Active. Besides, the Activity result is “Dose-Dependent Effect” in series [3] and “Toxic” in series [4].

For the compound `COc1cc(-c2cccc(-c3ccc4c(c3)OCCO4)c2Cl)ccc1CN1CCCC(C(=O)NC(CO)CO)C1` (stereo not given), in series [5], the midpoint of inhibition, the IC50, lay at 6 nM.

`COc1cc(-c2cccc(-c3ccc4c(c3)OCCO4)c2Cl)ccc1CN1CCC(C(=O)NCCO)C1` (stereo not given): the Activity entry was “Dose-Dependent Effect” in series [3] and “Toxic” in series [4].

As for `COc1cc(-c2cccc(-c3ccc4c(c3)OCCO4)c2Cl)ccc1CN1CCC(C(=O)NN(C)C)C1` (stereo not given), the outcome in series [2] was Active. Moreover, the Activity result in series [3] was “Dose-Dependent Effect”; in series [4], “Toxic”.
